Test [1] concerns L1210. In words: Antimitotic activity in mouse L1210 cells assessed as increase in mitotic index at 2 to 7 times IC50 after 6 hrs relative to control. It is filed as functional.
Test [2] has as its system L1210. Briefly: Cytotoxicity against mouse L1210 cells after 24 hrs. It is filed as functional, cell-based. The conditions noted are these: L1210, 24 h.
The nature of test [3]: Displacement of [3H]colchicine from tubulin at inhibitor and colchicine ratio 1:1 after 10 mins relative to control. Further details: concentration or dose not given beside the values. Conditions: values are per cent of control. (Displacement assays read how much labelled ligand stays bound in the presence of the test substance.)
A short description of test [4]: Inhibition of microtubule assembly after 15 mins.
Test [5] is described as follows: Displacement of [3H]colchicine from tubulin at inhibitor and colchicine ratio 10:1 after 10 mins relative to control. The conditions noted are these: values are per cent of control. Further details: concentration or dose not given beside the values.
A short description of test [6]: Displacement of [3H]colchicine from tubulin at inhibitor and colchicine ratio 100:1 after 10 mins relative to control. Conditions: values are per cent of control.
Another test has as its system P388. Briefly: Cytotoxicity against mouse P388 cells. Format: functional.

pIC50: −log10 of the molar value.

Regarding `COc1ccc(/C=C\c2cc(OC)c(OC)c(OC)c2)c(O)c1O` [COMBRETASTATIN A-1], the Activity in the test with L1210 [1] turned out to be 25%. The figures for the pIC50 (in the test on L1210 [2]; in test [4]) were 6.22 and 5.40, respectively. Besides, the residual binding, % of control in test [3] came out at 3%; in test [5], 0%.

Consider `COc1cc(CCc2ccc(OC)c(O)c2)cc(OC)c1`, for which the Activity in the test with L1210 [1] was 25%. Moreover, the negative-log IC50 (pIC50) in the test with L1210 [2] is 6.00; in test [4], 4.52. The residual binding, % of control in test [3] was 38%; in test [6] it was 3%; in test [5], 8%. The compound also came in with an ED50 in the test on P388 of 1.7 Ug/ml.

As to `COc1cc(CCc2ccc(OC)c(OC)c2)cc(OC)c1`, in the test on L1210 [1], the Activity is given as 56%. Further, the pIC50 in the test on L1210 [2] is 4.52; in test [4] it was < 4.00. The results for the residual binding, % of control in test [3], in test [6] and in test [5] were 90%, 34% and 80%, respectively.

`COc1ccc(CCc2cc(OC)c(OC)c(OC)c2)cc1OC`: in the test on L1210 [1], the Activity was found to be 25%. The results for the pIC50 (with L1210 [2]; in test [4]) were 4.70 and < 4.00, respectively. Further, the results for the residual binding, % of control in test [3], in test [6] and in test [5] were 88%, 37% and 63%, respectively.

Consider `COc1cc([C@@H]2c3cc4c(cc3[C@H](O)[C@H]3COC(=O)[C@H]23)OCO4)cc(OC)c1OC` [PODOFILOX], for which the residual binding, % of control in test [3] came to 11%; in test [5], 0%. In test [4], this compound had a pIC50 of 5.40.

In the case of `COc1cc(CCc2ccc(O)c(O)c2)cc(OC)c1`, the Activity with L1210 [1] worked out at 25%. Further, the negative logarithm of the IC50 (pIC50) was 6.00 with L1210 [2] and < 4.00 in test [4]. The residual binding, % of control in test [3] was found to be 75%; in test [6] it was 10%; in test [5], 31%. Besides, the ED50 with P388 is 1.7 Ug/ml.

As for `COc1cc(CCc2ccc(O)cc2)cc(OC)c1OC`, the Activity in the test on L1210 [1] is recorded as 25%. The pIC50 is 4.30 with L1210 [2] and < 4.00 in test [4]. In addition, the residual binding, % of control in test [3] came out at 89%; in test [6], 43%; in test [5] it was 77%. The ED50 with P388 is recorded as 0.25 Ug/ml.

Consider `COc1cc(CCc2ccc(O)c(O)c2)cc(OC)c1OC`, for which the Activity in the test with L1210 [1] is reported as 25%. Also, the values for the pIC50 (in the test on L1210 [2]; in test [4]) were 5.52 and < 4.00, respectively. The residual binding, % of control in test [3] came out at 92%; in test [6], 48%; in test [5], 81%. This compound had an ED50 in the test on P388 of 0.4 Ug/ml.

For the compound `COc1ccc(CCc2cc(OC)c(OC)c(OC)c2)c(O)c1O`, in the test on L1210 [1], the Activity stood at 25%. Moreover, the pIC50 in the test on L1210 [2] was 5.70; in test [4], 5.40. Also, the residual binding, % of control was determined as 13% in test [3] and 0% in test [5].

One may read the pIC50 as the negative decadic logarithm of the IC50, by convention in mol/L.
